# Patent publication US20170190671A1, “BIS(ARYL)CATECHOL DERIVATIVES AS HERBICIDES” (E I DU PONT DE NEMOURS AND COMPANY, priority 2014, published 2017)
# Columns and labels:
# Assay in all cases: Test C preemergence
# Type in all cases: in vivo
# [1] = test system: waterhemp (common waterhemp, Amaranthus rudis); conditions: Amaranthus tuberculatus, pre-emergence, scale 0 to 100, read-out: Plant response rating, Waterhemp
# Procedure, shortened: (§1)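 Greenhouse test; preemergence on seeded loam-sand soil or spray on 1- to 4-leaf plants; solvent + surfactant vehicle; 13-15 day hold; visual comparison with controls; 0 (no effect)-100 (complete control).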
# soybean (Glycine max) = conditions: Glycine max, pre-emergence, preemergence, scale 0 to 100, read-out: Plant response rating, Soybean
# Procedure, shortened: as §1
# [2] = test system: blackgrass (Alopecurus myosuroides); conditions: Alopecurus myosuroides, pre-emergence, 336 h, scale 0 to 100, read-out: Plant response rating, Blackgrass
# Procedure, shortened: as §1
# [3] = test system: barnyardgrass (Echinochloa crus-galli); conditions: Echinochloa crus-galli, pre-emergence, read-out: Plant response rating, Barnyardgrass
# Procedure, shortened: as §1
# [4] = test system: oilseed rape (Brassica napus); conditions: Brassica napus, pre-emergence, preemergence, scale 0 to 100, read-out: Plant response rating, Oilseed Rape
# Procedure, shortened: as §1
# [5] = test system: yellow nutsedge (Cyperus esculentus); conditions: Cyperus, pre-emergence, 336 h, scale 0 to 100, read-out: Plant response rating, Nutsedge, Yellow
# Procedure, shortened: as §1
# [6] = test system: velvetleaf (Abutilon theophrasti); conditions: Abutilon theophrasti, pre-emergence, scale 0 to 100, read-out: Plant response rating, Velvetleaf
# Procedure, shortened: as §1
# [7] = test system: lambsquarters (Chenopodium album); conditions: Chenopodium album, pre-emergence, 336 h, scale 0 to 100, read-out: Plant response rating, Lambsquarters
# Procedure, shortened: as §1
# corn (Zea mays) = conditions: Zea mays, pre-emergence, 336 h, scale 0 to 100
# Procedure, shortened: as §1
# [8] = test system: galium (catchweed bedstraw, Galium aparine); conditions: Galium, pre-emergence, 336 h, preemergence, scale 0 to 100, read-out: Plant response rating, Galium
# Procedure, shortened: as §1
# [9] = test system: giant foxtail (Setaria faberii); conditions: Setaria faberi, pre-emergence, 336 h, scale 0 to 100, read-out: Plant response rating, Foxtail, Giant
# Procedure, shortened: as §1
# [10] = test system: winter wheat (Triticum aestivum); conditions: Triticum aestivum, pre-emergence, 336 h, scale 0 to 100, read-out: Plant response rating, Wheat
# Procedure, shortened: as §1
# [11] = test system: ragweed (common ragweed, Ambrosia elatior); conditions: Ambrosia artemisiifolia, pre-emergence, 336 h, preemergence, scale 0 to 100, read-out: Plant response rating, Ragweed
# Procedure, shortened: as §1
# [12] = test system: large (Lg) crabgrass (Digitaria sanguinalis); conditions: Digitaria sanguinalis, pre-emergence, 336 h, scale 0 to 100, read-out: Plant response rating, Crabgrass, Large
# Procedure, shortened: as §1
# [13] = test system: Italian ryegrass (Lolium multiflorum); conditions: Lolium multiflorum, pre-emergence, 336 h, scale 0 to 100, read-out: Plant response rating, Ryegrass, Italian
# Procedure, shortened: as §1
smiles,measurement,setting,value
"N#Cc1cccc(Oc2ncc(Br)cn2)c1Oc1ncc(Cl)cn1 [Compound 5, 3-[(5-bromo-2-pyrimidinyl)oxy]-2-[(5-chloro-2-pyrimidinyl)oxy]benzonitrile]",pest or weed control at 31 g/ha,"[1]; 31 g ai/ha, preemergence",100%
same,pest or weed control at 62 g/ha,"[1]; 62 g ai/ha, preemergence",100%
same,pest or weed control at 125 g/ha,"[1]; 125 g ai/ha, preemergence",100%
same,pest or weed control at 16 g/ha,"[1]; Preemergence, 16 g ai/ha",85%
same,plant injury at 31 g/ha,soybean (Glycine max); 31 g ai/ha,45%
same,plant injury at 62 g/ha,soybean (Glycine max); 62 g ai/ha,65%
same,plant injury at 125 g/ha,soybean (Glycine max); 125 g ai/ha,85%
same,pest or weed control at 31 g/ha,"[2]; 31 g ai/ha, preemergence",30%
same,pest or weed control at 62 g/ha,"[2]; 62 g ai/ha, preemergence",40%
same,pest or weed control at 125 g/ha,"[2]; 125 g ai/ha, preemergence",70%
same,pest or weed control at 16 g/ha,"[2]; Preemergence, 16 g ai/ha",10%
same,pest or weed control at 31 g/ha,"[3]; 31 g ai/ha, preemergence, scale 0 to 100",60%
same,pest or weed control at 62 g/ha,"[3]; 62 g ai/ha, preemergence, scale 0 to 100",85%
same,pest or weed control at 125 g/ha,"[3]; 125 g ai/ha, preemergence, scale 0 to 100",98%
same,pest or weed control at 16 g/ha,"[3]; Preemergence, 16 g ai/ha, scale 0 to 100 (0 no effect, 100 complete control)",20%
same,plant injury at 31 g/ha,[4]; 31 g ai/ha,70%
same,plant injury at 62 g/ha,[4]; 62 g ai/ha,98%
same,plant injury at 125 g/ha,[4]; 125 g ai/ha,100%
same,pest or weed control at 31 g/ha,"[5]; 31 g ai/ha, preemergence",5%
same,pest or weed control at 62 g/ha,"[5]; 62 g ai/ha, preemergence",25%
same,pest or weed control at 125 g/ha,"[5]; 125 g ai/ha, preemergence",60%
same,pest or weed control at 16 g/ha,"[5]; Preemergence, 16 g ai/ha",0%
same,pest or weed control at 31 g/ha,"[6]; 31 g ai/ha, preemergence",90%
same,pest or weed control at 62 g/ha,"[6]; 62 g ai/ha, preemergence",100%
same,pest or weed control at 125 g/ha,"[6]; 125 g ai/ha, preemergence",100%
same,pest or weed control at 16 g/ha,"[6]; Preemergence, 16 g ai/ha",60%
same,pest or weed control at 31 g/ha,"[7]; 31 g ai/ha, preemergence",100%
same,pest or weed control at 62 g/ha,"[7]; 62 g ai/ha, preemergence",100%
same,pest or weed control at 125 g/ha,"[7]; 125 g ai/ha, preemergence",100%
same,pest or weed control at 16 g/ha,"[7]; Preemergence, 16 g ai/ha",80%
same,"Corn plant response rating (crop injury, 0 = no effect, 100 = complete kill) at 31 g/ha","corn (Zea mays); 31 g ai/ha, preemergence",25%
same,"Corn plant response rating (crop injury, 0 = no effect, 100 = complete kill) at 62 g/ha","corn (Zea mays); 62 g ai/ha, preemergence",60%
same,"Corn plant response rating (crop injury, 0 = no effect, 100 = complete kill) at 125 g/ha","corn (Zea mays); 125 g ai/ha, preemergence",75%
same,"Corn plant response rating (crop injury, 0 = no effect, 100 = complete kill) at 16 g/ha","corn (Zea mays); Preemergence, 16 g ai/ha",5%
same,pest or weed control at 31 g/ha,[8]; 31 g ai/ha,50%
same,pest or weed control at 62 g/ha,[8]; 62 g ai/ha,100%
same,pest or weed control at 125 g/ha,[8]; 125 g ai/ha,100%
same,pest or weed control at 31 g/ha,"[9]; 31 g ai/ha, preemergence",80%
same,pest or weed control at 62 g/ha,"[9]; 62 g ai/ha, preemergence",100%
same,pest or weed control at 125 g/ha,"[9]; 125 g ai/ha, preemergence",100%
same,pest or weed control at 16 g/ha,"[9]; Preemergence, 16 g ai/ha",30%
same,plant injury at 31 g/ha,"[10]; 31 g ai/ha, preemergence",0%
same,plant injury at 62 g/ha,"[10]; 62 g ai/ha, preemergence",5%
same,plant injury at 125 g/ha,"[10]; 125 g ai/ha, preemergence",35%
same,plant injury at 16 g/ha,"[10]; Preemergence, 16 g ai/ha",0%
same,pest or weed control at 31 g/ha,[11]; 31 g ai/ha,20%
same,pest or weed control at 62 g/ha,[11]; 62 g ai/ha,80%
same,pest or weed control at 125 g/ha,[11]; 125 g ai/ha,100%
same,pest or weed control at 31 g/ha,"[12]; 31 g ai/ha, preemergence",98%
same,pest or weed control at 62 g/ha,"[12]; 62 g ai/ha, preemergence",100%
same,pest or weed control at 125 g/ha,"[12]; 125 g ai/ha, preemergence",100%
same,pest or weed control at 16 g/ha,"[12]; Preemergence, 16 g ai/ha",70%
same,pest or weed control at 31 g/ha,"[13]; 31 g ai/ha, preemergence",5%
same,pest or weed control at 62 g/ha,"[13]; 62 g ai/ha, preemergence",55%
same,pest or weed control at 125 g/ha,"[13]; 125 g ai/ha, preemergence",60%
same,pest or weed control at 16 g/ha,"[13]; Preemergence, 16 g ai/ha",0%
